Patent US20260209193A1, “NOVEL INHIBITORS OF DNA DAMAGE RESPONSES FOR CANCER THERAPY” (The Regents of the University of California, priority 2022, published 2026)
Values belong to the compound of their own block, whether it stands above or below them.

Target: T1, PARP1 (Homo sapiens, UniProt P09874)
T1 construct: endogenous in cells; host or cells: PC3
Assay: PARP1 trapping, chromatin fractionation (chromatin-bound fraction)
Type: cell-based
Settings: PC3 cells
Excerpt: The trapped PARP1 forms a toxic lesion and stalls the progress of replication forks. The replication fork collapses in BRCA1/2-deficient cancer cells, and then results in cell death. […] Six cancer cell lines were used in this assay, including two breast cancer cell lines, BRCA1-mutunt SUM149PT-BRCA1mut and SUM149PT-BRCA1rev where deleterious BRCA1 mutation is reverted to form a functional BRCA1, two ovarian cancer cell lines, BRCA1-null UWB1.289 and UWB1.289+BRCA1, a stable cell line in which wild-type BRCA1 function has been restored, and two prostate cancer cell lines, enzalutamide resistant C4-2B/MR which is homologous recombination (HR)-deficient due to Rad51 mutation, and enzalutamide insensitive PC3 which is HR-proficient.

T1 sequence (P09874 whole entry, species assumed): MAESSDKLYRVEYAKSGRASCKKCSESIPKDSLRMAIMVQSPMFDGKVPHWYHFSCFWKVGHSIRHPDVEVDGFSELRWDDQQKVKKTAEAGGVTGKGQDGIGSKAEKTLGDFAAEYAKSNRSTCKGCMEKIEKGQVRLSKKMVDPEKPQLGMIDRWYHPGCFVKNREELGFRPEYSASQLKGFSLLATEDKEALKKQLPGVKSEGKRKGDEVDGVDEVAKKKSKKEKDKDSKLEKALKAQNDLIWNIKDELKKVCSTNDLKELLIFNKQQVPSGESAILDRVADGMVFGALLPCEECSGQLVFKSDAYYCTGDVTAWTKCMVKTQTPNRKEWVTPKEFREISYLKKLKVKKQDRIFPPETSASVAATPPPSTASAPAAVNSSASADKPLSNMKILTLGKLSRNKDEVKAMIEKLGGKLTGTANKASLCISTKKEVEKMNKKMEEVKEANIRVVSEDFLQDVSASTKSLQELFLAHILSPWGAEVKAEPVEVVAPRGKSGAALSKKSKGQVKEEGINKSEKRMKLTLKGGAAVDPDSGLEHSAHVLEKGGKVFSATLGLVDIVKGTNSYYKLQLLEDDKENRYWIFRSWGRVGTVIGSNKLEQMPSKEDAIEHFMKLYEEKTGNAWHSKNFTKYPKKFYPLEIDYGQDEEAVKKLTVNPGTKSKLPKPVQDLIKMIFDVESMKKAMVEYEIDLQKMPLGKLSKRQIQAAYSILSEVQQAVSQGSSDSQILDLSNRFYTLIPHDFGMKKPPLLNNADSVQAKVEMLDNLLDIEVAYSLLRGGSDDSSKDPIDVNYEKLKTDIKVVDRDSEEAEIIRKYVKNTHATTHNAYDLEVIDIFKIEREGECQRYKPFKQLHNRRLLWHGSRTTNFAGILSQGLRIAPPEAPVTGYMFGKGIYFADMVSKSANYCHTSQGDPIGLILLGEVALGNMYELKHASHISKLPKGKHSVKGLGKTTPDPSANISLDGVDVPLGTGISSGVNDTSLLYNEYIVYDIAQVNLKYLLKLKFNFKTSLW

PARP1-trapping potency relative to JC099 (PARP1 in the chromatin-bound fraction): their potencies were less than JC099
Compound: 3-amino-N-(3,5-bis((E)-3,4-difluorobenzylidene)-4-oxocyclohexyl)-5-(4-(isopropylsulfonyl)phenyl)pyrazine-2-carboxamide [JCS089]

PARP1 trapped on DNA lesions (0.5 μM and 2 μM): trapped
Compound: CCOCCOc1ccc(C(=O)NC2C/C(=C\c3ccc(F)c(F)c3)C(=O)/C(=C/c3ccc(F)c(F)c3)C2)cc1 (stereo not drawn) [JCS010, N-(3,5-Bis((E)-3,4-difluorobenzylidene)-4-oxocyclohexyl)-4-(2-ethoxyethoxy)benzamide]

PARP1 trapped on DNA lesions (0.5 μM and 2 μM): trapped
PARP1-trapping potency relative to JC099 (PARP1 in the chromatin-bound fraction): higher potency in PARP1-trapping
Compound: CCCN(CCC)CCOc1ccc(C(=O)NC2C/C(=C\c3ccc(F)c(F)c3)C(=O)/C(=C/c3ccc(F)c(F)c3)C2)cc1 (stereo not drawn) [JCS011, N-(3,5-Bis((E)-3,4-difluorobenzylidene)-4-oxocyclohexyl)-4-(2-(dipropylamino)ethoxy)benzamide]

PARP1 trapped on DNA lesions (0.5 μM and 2 μM): trapped
PARP1-trapping potency relative to JC099 (PARP1 in the chromatin-bound fraction): higher potency in PARP1-trapping
Compound: CC(C)N(CCOc1ccc(C(=O)NC2C/C(=C\c3ccc(F)c(F)c3)C(=O)/C(=C/c3ccc(F)c(F)c3)C2)cc1)C(C)C (stereo not drawn) [JCS013, N-(3,5-Bis((E)-3,4-difluorobenzylidene)-4-oxocyclohexyl)-4-(2-(diisopropylamino)ethoxy)benzamide]

PARP1 trapped on DNA lesions (0.5 μM): trapped
Compound: O=C1/C(=C/c2ccc(F)c(F)c2)CC(NC(=O)c2ccc(OCCN3CCCCC3)cc2)C/C1=C\c1ccc(F)c(F)c1 (stereo not drawn) [JCS16]

PARP1 trapped on DNA lesions (0.5 μM and 2 μM): trapped
PARP1 trapped on DNA lesions (0.5 μM): trapped
Compound: CCCCCN(CCCCC)CCOc1ccc(C(=O)NC2C/C(=C\c3ccc(F)c(F)c3)C(=O)/C(=C/c3ccc(F)c(F)c3)C2)cc1 (stereo not drawn) [JCS023, N-(3,5-Bis((E)-3,4-difluorobenzylidene)-4-oxocyclohexyl)-4-(2-(dipentylamino)ethoxy)benzamide]

PARP1 trapped on DNA lesions (0.5 μM and 2 μM): trapped
PARP1 trapped on DNA lesions (0.5 μM): trapped
Compound: O=C1/C(=C/c2ccc(F)c(F)c2)CC(NC(=O)c2ccc(NCCN3CCCCC3)cc2)C/C1=C\c1ccc(F)c(F)c1 (stereo not drawn) [JCS028, N-(3,5-Bis((E)-3,4-difluorobenzylidene)-4-oxocyclohexyl)-4-((2-(piperidin-1-yl)ethyl)amino)-benzamide]

PARP1 trapped on DNA lesions (0.5 μM): trapped
Compound: COCCCNCCOc1ccc(C(=O)NC2C/C(=C\c3ccc(F)c(F)c3)C(=O)/C(=C/c3ccc(F)c(F)c3)C2)cc1 (stereo not drawn) [JCS030, N-(3,5-Bis((E)-3,4-difluorobenzylidene)-4-oxocyclohexyl)-4-(2-((3-methoxypropyl)amino)ethoxy)-benzamide]

PARP1 trapped on DNA lesions (0.5 μM): trapped
Compound: COCCNCCOc1ccc(C(=O)NC2C/C(=C\c3ccc(F)c(F)c3)C(=O)/C(=C/c3ccc(F)c(F)c3)C2)cc1 (stereo not drawn) [JCS031, N-(3,5-Bis((E)-3,4-difluorobenzylidene)-4-oxocyclohexyl)-4-(2-((2-methoxyethyl)amino)ethoxy)-benzamide]

PARP1 trapped on DNA lesions (0.5 μM): trapped
PARP1-trapping potency relative to JC099 (PARP1 in the chromatin-bound fraction): higher potency in PARP1-trapping
Compound: CCCCNCCOc1ccc(C(=O)NC2C/C(=C\c3ccc(F)c(F)c3)C(=O)/C(=C/c3ccc(F)c(F)c3)C2)cc1 (stereo not drawn) [JCS034, N-(3,5-Bis((E)-3,4-difluorobenzylidene)-4-oxocyclohexyl)-4-(2-(butylamino)ethoxy)benzamide]

PARP1 trapped on DNA lesions (0.5 μM): trapped
Compound: NCCOc1ccc(C(=O)NC2C/C(=C\c3ccc(F)c(F)c3)C(=O)/C(=C/c3ccc(F)c(F)c3)C2)cc1 (stereo not drawn) [JCS036]

PARP1 trapped on DNA lesions (0.5 μM): trapped
Compound: C=CCN(CC=C)CCOc1ccc(C(=O)NC2C/C(=C\c3ccc(F)c(F)c3)C(=O)/C(=C/c3ccc(F)c(F)c3)C2)cc1 (stereo not drawn) [JCS037, N-(3,5-Bis((E)-3,4-difluorobenzylidene)-4-oxocyclohexyl)-4-(2-(diallylamino)ethoxy)benzamide]

PARP1 trapped on DNA lesions (0.3 μM): trapped
Compound: CN1CCN(CCOc2ccc(C(=O)NC3C/C(=C\c4ccc(F)c(F)c4)C(=O)/C(=C/c4ccc(F)c(F)c4)C3)cc2)CC1 (stereo not drawn) [JCS038, N-(3,5-Bis((E)-3,4-difluorobenzylidene)-4-oxocyclohexyl)-4-(2-(4-methylpiperazin-1-yl)ethoxy)benz-amide]

PARP1 trapped on DNA lesions (0.3 μM): trapped
Compound: O=C1/C(=C/c2ccc(F)c(F)c2)CC(NC(=O)c2ccc(NCCN3CCOCC3)cc2)C/C1=C\c1ccc(F)c(F)c1 (stereo not drawn) [JCS042, N-(3,5-Bis((E)-3,4-difluorobenzylidene)-4-oxocyclohexyl)-4-((2-morpholinoethyl)amino)benzamide]

PARP1 trapped on DNA lesions (0.3 μM): trapped
Compound: O=C1/C(=C/c2ccc(F)c(F)c2)CC(NC(=O)c2ccc(NCCCN3CCCC3)cc2)C/C1=C\c1ccc(F)c(F)c1 (stereo not drawn) [JCS044, N-(3,5-Bis((E)-3,4-difluorobenzylidene)-4-oxocyclohexyl)-4-((3-(pyrrolidin-1-yl)propyl)amino)benz-amide]

PARP1 trapped on DNA lesions (0.3 μM): trapped
Compound: O=C(CN1CCOCC1)Nc1ccc(C(=O)NC2C/C(=C\c3ccc(F)c(F)c3)C(=O)/C(=C/c3ccc(F)c(F)c3)C2)cc1 (stereo not drawn) [JCS047, N-(3,5-bis((E)-3,4-difluorobenzylidene)-4-oxocyclohexyl)-4-(2-morpholinoacetamido)benzamide]

PARP1 trapped on DNA lesions (0.3 μM): trapped
PARP1-trapping potency relative to JC099 (PARP1 in the chromatin-bound fraction): higher potency in PARP1-trapping
Compound: O=C(CN1CCCC1=O)Nc1ccc(C(=O)NC2C/C(=C\c3ccc(F)c(F)c3)C(=O)/C(=C/c3ccc(F)c(F)c3)C2)cc1 (stereo not drawn) [JCS048, N-(3,5-bis((E)-3,4-difluorobenzylidene)-4-oxocyclohexyl)-4-(2-(2-oxopyrrolidin-1-yl)acetamido)benzamide]

PARP1 trapped on DNA lesions (0.3 μM): trapped
PARP1-trapping potency relative to JC099 (PARP1 in the chromatin-bound fraction): higher potency in PARP1-trapping
Compound: O=C1/C(=C/c2ccc(F)c(F)c2)CC(NC(=O)c2ccc(NC(=O)N3CCCCC3)cc2)C/C1=C\c1ccc(F)c(F)c1 (stereo not drawn) [JCS053, N-(4-((3,5-bis((E)-3,4-difluorobenzylidene)-4-oxocyclohexyl)carbamoyl)phenyl)piperidine-1-carboxamide]

PARP1 trapped on DNA lesions (0.3 μM): trapped
PARP1-trapping potency relative to JC099 (PARP1 in the chromatin-bound fraction): higher potency in PARP1-trapping
Compound: O=C1/C(=C/c2ccc(F)c(F)c2)CC(NC(=O)c2ccc(NC(=O)N3CCCC3)cc2)C/C1=C\c1ccc(F)c(F)c1 (stereo not drawn) [JCS054, N-(4-((3,5-bis((E)-3,4-difluorobenzylidene)-4-oxocyclohexyl)carbamoyl)phenyl)pyrrolidine-1-carboxamide]

PARP1 trapped on DNA lesions (0.3 μM): trapped
Compound: O=C1/C(=C/c2ccc(F)c(F)c2)CC(NC(=O)c2ccc(NC(=O)N3CCN(C(=O)C4CC4)CC3)cc2)C/C1=C\c1ccc(F)c(F)c1 (stereo not drawn) [JCS057, N-(4-((3,5-bis((E)-3,4-difluorobenzylidene)-4-oxocyclohexyl)carbamoyl)phenyl)-4-(cyclopropanecarbonyl)piperazine-1-carboxamide]

PARP1-trapping potency relative to JC099 (PARP1 in the chromatin-bound fraction): higher potency in PARP1-trapping
Compound: CCCN(CCC)CCNc1ccc(C(=O)NC2C/C(=C\c3ccc(F)c(F)c3)C(=O)/C(=C/c3ccc(F)c(F)c3)C2)cc1 (stereo not drawn) [JCS065, N-(3,5-Bis((E)-3,4-difluorobenzylidene)-4-oxocyclohexyl)-4-((2-(dipropylamino)ethyl)amino)benz-amide]

PARP1-trapping potency relative to JC099 (PARP1 in the chromatin-bound fraction): higher potency in PARP1-trapping
Compound: CCN(CC)CCNc1ccc(C(=O)NC2C/C(=C\c3ccc(F)c(F)c3)C(=O)/C(=C/c3ccc(F)c(F)c3)C2)cc1 (stereo not drawn) [JCS070, N-(3,5-Bis((E)-3,4-difluorobenzylidene)-4-oxocyclohexyl)-4-((2-(diethylamino)ethyl)amino)benz-amide]

Compound: CCN(CC)CCOc1ccc(C(=O)NC2CC(Cc3ccc(F)c(F)c3)C(=O)C(Cc3ccc(F)c(F)c3)C2)cc1 (stereo not drawn) [JCS074, N-(3,5-bis(3,4-difluorobenzyl)-4-oxocyclohexyl)-4-(2-(diethylamino)ethoxy)benzamide]
PARP1-trapping potency relative to JC099 (PARP1 in the chromatin-bound fraction): increased the accumulation of PARP1 in the chromatin-bound fraction than JC099

Compound: O=C1/C(=C/c2ccc(F)c(F)c2)CC(NC(=O)c2ccc(OCCN3CCC(C(F)(F)F)CC3)cc2)C/C1=C\c1ccc(F)c(F)c1 (stereo not drawn) [JCS077, N-(3,5-bis((E)-3,4-difluorobenzylidene)-4-oxocyclohexyl)-4-(2-(4-(trifluoromethyl)piperidin-1-yl)ethoxy)benzamide]
PARP1-trapping potency relative to JC099 (PARP1 in the chromatin-bound fraction): increased the accumulation of PARP1 in the chromatin-bound fraction than JC099

Compound: CCc1ccc2c(c1)CCC1(CCN(CCOc3ccc(C(=O)NC4C/C(=C\c5ccc(F)c(F)c5)C(=O)/C(=C/c5ccc(F)c(F)c5)C4)cc3)CC1)O2 (stereo not drawn) [JCS078, N-(3,5-bis((E)-3,4-difluorobenzylidene)-4-oxocyclohexyl)-4-(2-(6-ethylspiro[chromane-2,4′-piperidin]-1′-yl)ethoxy)benzamide]
PARP1-trapping potency relative to JC099 (PARP1 in the chromatin-bound fraction): increased the accumulation of PARP1 in the chromatin-bound fraction than JC099

PARP1-trapping potency relative to JC099 (PARP1 in the chromatin-bound fraction): higher potency in PARP1-trapping
Compound: Cc1nn(C)c2ncc(C(=O)NC3C/C(=C\c4ccc(F)c(F)c4)C(=O)/C(=C/c4ccc(F)c(F)c4)C3)c(Cl)c12 (stereo not drawn) [JCS085]

PARP1-trapping potency relative to JC099 (PARP1 in the chromatin-bound fraction): higher potency in PARP1-trapping
Compound: O=C1/C(=C/c2ccc(F)c(F)c2)CC(NC(=O)c2ccc(NCCN3CCN(Cc4ccccc4)CC3)cc2)C/C1=C\c1ccc(F)c(F)c1 (stereo not drawn) [JCS087, 4-((2-(4-benzylpiperazin-1-yl)ethyl)amino)-N-(3,5-bis((E)-3,4-difluorobenzylidene)-4-oxocyclohexyl)benzamide]

PARP1-trapping potency relative to JC099 (PARP1 in the chromatin-bound fraction): higher potency in PARP1-trapping
Compound: CCN(CC)CCOc1cccc(C(=O)NC2C/C(=C\c3ccc(F)c(F)c3)C(=O)/C(=C/c3ccc(F)c(F)c3)C2)c1 (stereo not drawn) [JCS099, N-(3,5-Bis((E)-3,4-difluorobenzylidene)-4-oxocyclohexyl)-3-(2-(diethylamino)ethoxy)benzamide]
